Target: interaction between p53 and MDM2 proteins (Homo sapiens, UniProt Q00987)
Assay: HTRF assay of inhibition of the p53-MDM2 interaction (GST-MDM2 / biotinylated p53 peptide)
Format: binding
Conditions: recombinant GST-tagged MDM2 and biotinylated p53 peptide, 0.02% BSA
Experimental: In a […], the ability of the compounds to inhibit the interaction between p53 and MDM2 proteins was measured. The ability of the compounds to inhibit the interaction between p53 and MDM2 proteins was measured by an HTRF (homogeneous time-resolved fluorescence) assay in which recombinant GST-tagged MDM2 binds to a peptide that resembles the MDM2-interacting region of p53 (Lane et al.). Binding of GST-MDM2 protein and p53-peptide (biotinylated on its N-terminal end) is registered by the FRET (fluorescence resonance energy transfer) between Europium (Eu)-labeled anti-GST antibody and streptavidin-conjugated Allophycocyanin (APC). […]

Chain of interaction between p53 and MDM2 proteins (Q00987 whole entry): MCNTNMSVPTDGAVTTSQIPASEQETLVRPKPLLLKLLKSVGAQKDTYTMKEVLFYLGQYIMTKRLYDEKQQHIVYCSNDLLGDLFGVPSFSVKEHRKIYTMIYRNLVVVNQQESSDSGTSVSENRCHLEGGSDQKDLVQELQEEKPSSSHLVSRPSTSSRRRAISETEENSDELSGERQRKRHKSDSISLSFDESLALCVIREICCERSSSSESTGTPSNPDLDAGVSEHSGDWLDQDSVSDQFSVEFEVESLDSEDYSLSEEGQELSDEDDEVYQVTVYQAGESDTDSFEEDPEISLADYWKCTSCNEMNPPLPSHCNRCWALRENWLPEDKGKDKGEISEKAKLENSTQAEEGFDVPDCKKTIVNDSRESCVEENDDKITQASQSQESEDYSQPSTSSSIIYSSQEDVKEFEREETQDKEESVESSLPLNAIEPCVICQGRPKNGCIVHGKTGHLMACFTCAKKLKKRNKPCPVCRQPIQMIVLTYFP

Structure (SMILES) | IC50 [nM]
O=C1Nc2cc(Cl)ccc2C1(Cc1cccc(Cl)c1)Nc1ccc(Br)cc1F (racemic) [Example 11, rac-3-(4-bromo-2-fluoro-phenylamino)-6-chloro-3-(3-chloro-benzyl)-1,3-dihydro-indol-2-one] | 3.73
O=C1Nc2cc(Cl)ccc2C1(Cc1cccc(Cl)c1)N1CCCC(O)C1 (racemic) [Example 62, rac-6-chloro-3-(3-chloro-benzyl)-3-(3-hydroxy-piperidin-1-yl)-1,3-dihydro-indol-2-one] | 3.68
O=C1Nc2cc(Cl)ccc2C1(Cc1cccc(Cl)c1)Nc1cccc(OC(F)F)c1 (racemic) [Example 19, rac-6-chloro-3-(3-chloro-benzyl)-3-(3-difluoromethoxy-phenylamino)-1,3-dihydro-indol-2-one] | 2.56
O=C1Nc2cc(Cl)ccc2C1(Cc1cccc(Cl)c1)NC1CCC1 (racemic) [Example 49, rac-6-chloro-3-(3-chloro-benzyl)-3-cyclobutylamino-1,3-dihydro-indol-2-one] | 2.54

Source: US8058269B2, “Oxindole derivatives” (Hoffman-La Roche Inc., priority 2006, dated 2011)
